# In PubChem BioAssay (NCI):
# Where “and” joins values, the source holds several entries; their conditions need not be identical. Identical values can stand only once.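 Cells were grown in 96-well plates and exposed to each compound for 48 hours at five concentrations; endpoints were interpolated linearly between bracketing concentrations, or set to the highest concentration if not reached. GI50 is the concentration that inhibits growth by half. TGI denotes the concentration required for complete inhibition of growth.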
# Tests used:
# Assay in all cases: DTP human tumour cell line panel, 48 h
# [1] = test system: HS 578T breast
# [2] = test system: DMS 273 small cell lung
# [3] = test system: HOP-18 NSCLC
# [4] = test system: KM20L2 colon
# [5] = test system: LXFL 529 NSCLC
# [6] = test system: SNB-78 CNS
# [7] = test system: XF 498 CNS
# [8] = test system: RXF-631 renal
# [9] = test system: MDA-N
Structure (SMILES),GI50 [1],TGI [1],TGI [2],TGI [3],TGI [4],TGI [5],TGI [6],TGI [7],also measured
CCN1C(=O)N(CC)C2C1NC(=S)N2/N=C/C=C/c1ccccc1OC (stereo not drawn),0.0514 µM,> 100 µM,–,–,–,–,–,–,–
O=c1[nH]c(F)nc2c1ncn2C1OC(CO)C(O)C1O (stereo not drawn),> 100 µM,> 100 µM,–,–,–,–,–,–,–
C/C(=N\O)c1cccc(Nc2cc(-c3ccccc3)nc3c(O)cccc23)c1,4.34 µM,> 60 µM,–,–,–,–,–,–,–
CCC1c2cc3n(c(=O)c2COC1O)Cc1c-3nc2ccccc2c1Cl (stereo not drawn),–,–,> 100 µM,> 100 µM,> 100 µM,> 100 µM,> 100 µM,> 100 µM,–
O=c1[nH]c2ccccc2n2cc3ccccc3c12,0.52 µM,34.7 µM,–,–,–,–,–,–,–
CCCCCCc1cc2cc(-c3csc(/C=C/c4ccccc4)n3)c(=O)oc2cc1O,9 µM,42.7 µM,–,–,–,–,–,–,–
Cc1cc2c(cc1C)[n+](=O)c(C(=O)CC(=O)C(=O)Nc1ccccc1C(C)C)c(C)n2[O-],–,–,> 100 µM,–,> 100 µM,> 100 µM,> 100 µM,> 100 µM,TGI [8]: > 100 µM
O=C1C=CC(=O)N1c1ccc(I)cc1,–,66.3 µM,–,–,–,–,–,–,TGI [9]: 30.1 µM
O=C(NS(=O)(=O)c1ccc(NC[C@H]2COCCO2)c([N+](=O)[O-])c1)c1ccc(N2CCN(CC3=C(c4ccc(Cl)cc4)CC4(CCC4)CC3)CC2)cc1Oc1cnc2[nH]ccc2c1,2.12 µM,5.76 µM,–,–,–,–,–,–,–
COc1cc(C2C(C(=O)O)=C(COC(C)=O)Oc3cc4c(cc32)OCO4)cc(OC)c1OC(C)=O (stereo not drawn),–,–,> 100 µM,> 100 µM,> 100 µM,–,> 100 µM,> 100 µM,TGI [8]: > 100 µM
Brc1ccc(Nc2nc3ccccc3nc2Nc2ccc(Br)cc2)cc1,2.9 µM,9.05 µM,–,–,–,–,–,–,–
O=C(O)c1ccc(Oc2nc3ccccc3s2)cc1,–,> 100 µM,–,–,–,–,–,–,–
C/C(=N/NC(=S)N1CC2CCC(CC2)C1)c1cnccn1,–,11.4 µM,–,–,–,–,–,–,TGI [9]: 28.7 µM
NC(=N\N=C/c1ccc(Cl)cc1Cl)/C(N)=N\N=C/c1ccc(Cl)cc1Cl,3.39 µM,> 30.4 µM,–,–,–,–,–,–,–
O=Cc1ccc(-c2ccc(-c3ccc(C=O)o3)[se]2)o1,> 100 µM,> 100 µM,–,–,–,–,–,–,–
O=C(Nc1ccc(I)cc1)c1cccc([N+](=O)[O-])c1O,4.13 µM,87.7 µM,–,–,–,–,–,–,–
O=C(O)CCC1CCc2cccc(OCC(=O)O)c2C1=O (stereo not drawn),–,–,> 100 µM,> 100 µM,> 100 µM,> 100 µM,> 100 µM,> 100 µM,–
O=C(/C=C/c1cccc(S(=O)(=O)Nc2ccccc2)c1)NO,1.28 µM and 0.52 µM,> 81.8 µM and 34.9 µM,–,–,–,–,–,–,–

Structure (SMILES),GI50 [1],TGI [1],TGI [2],TGI [3],TGI [4],TGI [5],TGI [6],TGI [7],also measured
CCC(C)(C)[C@H](NC(=O)[C@H]1CCCCN1C)C(=O)N(C)[C@H](C[C@@H](OC(C)=O)c1nc(C(=O)N[C@@H](Cc2ccccc2)C[C@H](C)C(=O)O)cs1)C(C)C,< 0.00167 µM,> 11.5 µM,–,–,–,–,–,–,–
O=c1c(O)cc2c(O)oc3c(=O)c(O)c(O)c4c(O)oc1c2c43,–,–,> 100 µM,> 100 µM,> 100 µM,> 100 µM,> 100 µM,–,–
COc1ccc(/C=C/C(=O)c2ccc(Nc3nc(Nc4ccc(F)cc4)nc(Nc4ccc(Cl)cc4)n3)cc2)cc1,14.6 µM,52.3 µM,–,–,–,–,–,–,–
CC(=O)OCC1OC([Se-])C(OC(C)=O)C(OC(C)=O)C1OC(C)=O.N#CCC[PH+](CCC#N)CCC#N.[Au+] (stereo not drawn),–,–,49.7 µM,46.9 µM,41.1 µM,37.3 µM,79.3 µM,34.6 µM,GI50 [2]: 4.09 µM; GI50 [3]: 12.6 µM; GI50 [4]: 7 µM; GI50 [5]: 3.5 µM; GI50 [8]: 16 µM; TGI [8]: > 100 µM; GI50 [6]: 20.1 µM; GI50 [7]: 8.09 µM
O=C(Cc1ccccc1)N/N=C(/c1nc2ccc([N+](=O)[O-])cc2[nH]c1=O)C(O)c1ccccc1Cl (stereo not drawn),–,–,–,> 100 µM,–,> 100 µM,> 100 µM,> 100 µM,–
C=C1C(=O)c2cc3c(cc2C(c2cc(OC)c(OC)c(OC)c2)[C@@H]1C(=O)O)OCO3 (stereo partly drawn),–,–,–,> 100 µM,–,> 100 µM,> 100 µM,–,–
C=C1C(=O)OC2CC1C(OC(C)=O)C/C(C)=C/CC/C(C)=C\CCC2(C)O (stereo not drawn),–,25.1 µM and 26.2 µM,–,–,–,–,–,–,TGI [9]: 15.9 µM and 12.3 µM
Cc1ccc(NC(=O)/C(=N\NC(N)=S)C(C#N)c2ccccc2C)cc1C (stereo not drawn),–,–,> 100 µM,> 100 µM,> 100 µM,> 100 µM,> 100 µM,> 100 µM,TGI [8]: > 100 µM
CCc1cccc(CC)c1NC(=O)CC1SC(N)=NC1=O (stereo not drawn),–,–,> 100 µM,> 100 µM,–,> 100 µM,> 100 µM,> 100 µM,TGI [8]: > 100 µM
Cn1c2cc([N+](=O)[O-])ccc2c(=O)c2c(O)cc3c(c21)C=CC(C)(C)O3,–,–,> 100 µM,–,> 100 µM,> 100 µM,> 100 µM,47.7 µM,–
O=C(Cc1ccc(Nc2ccnc(C(F)(F)F)c2)cc1)N/N=C/c1ccccc1O,2.66 µM,29 µM,–,–,–,–,–,–,–
O=C(N/C=C/C=C/Sc1ccccc1)OCc1ccccc1,–,–,31.4 µM,65 µM,31 µM,32.5 µM,> 100 µM,43.9 µM,TGI [8]: 39.3 µM
C=C(COC(C)=O)CC(/C=C(\C)CC/C=C(\C)CO)OC(C)=O (stereo not drawn),–,–,> 100 µM,–,> 100 µM,> 100 µM,> 100 µM,> 100 µM,TGI [8]: > 100 µM
O=C([O-])CCc1ccccc1.O=C([O-])CCc1ccccc1.O=C([O-])CCc1ccccc1.O=C([O-])CCc1ccccc1.[Mo+2].[Mo+2],–,–,–,> 100 µM,> 100 µM,> 100 µM,–,–,GI50 [3]: > 100 µM; GI50 [4]: > 100 µM; GI50 [5]: > 100 µM
NS(=O)(=O)c1ccc(N=C2C(=O)Nc3ccccc32)cc1,–,> 100 µM,–,–,–,–,–,–,TGI [9]: > 100 µM
Cc1cc(=O)oc2cc(OC(=O)Nc3ccccc3)ccc12,–,> 100 µM,–,–,–,–,–,–,TGI [9]: > 100 µM
O=C1/C(=C\c2ccccc2)CN(C(=O)c2ccccc2)C/C1=C\c1ccccc1,2.31 µM,7.21 µM,–,–,–,–,–,–,–
